Assay results reported in US4208531A, “Synthetic aminoglycosides” (priority 1976, dated 1980).
Converted amounts (≈) assume the structure as drawn. Where two headings read alike, the source gives them in different places.

Tests used:
Experiment in all cases: MIC, Steers agar-dilution method, Mueller-Hinton
Assay type in all cases: cell-based
[1] = system: Pseudomonas aeruginosa D 15
Description: (§1) Illustrated below is a table showing the minimal inhibitory concentrations (MIC's) of Kanamycin A together with those of one of the trisaccharides synthesized (Example I) against a variety of Gram-positive and Gram-negative bacteria as obtained by the Steers agar-dilution method with Mueller-Hinton agar medium.
(§2) In vitro activity of Kanamycin A and compound (Example LI). MIC's in
(§3) MuellerHinton broth pH 7.2.

[2] = system: Micrococcus pyogenes aureus 6539 P; conditions: Staphylococcus aureus, AUREUS6539P
Description: as §1, §2, §3

[3] = system: Pseudomonas aeruginosa I.A.
Description: as §1, §2, §3

Proteus mirabilis = system: Proteus mirabilis
Description: as §1, §2, §3

Proteus rettgeri = conditions: Providencia rettgeri
Description: as §1, §2, §3

Proteus morganii = conditions: Morganella morganii
Description: as §1, §2, §3

Salmonella sui-pestifer = system: Salmonella sui-pestifer
Description: as §1, §2, §3

Salmonella tiphymurium = system: Salmonella tiphymurium
Description: as §1, §2, §3

[4] = system: Pseudomonas aeruginosa s.p.
Description: as §1, §2, §3

[5] = system: Staphylococcus pyogenes Smith A; conditions: Staphylococcus aureus
Description: as §1, §2, §3

Escherichia coli R 1513 = conditions: R1513, MuellerHinton broth pH 7.2
Description: as §1, §2, §3

NCC1OC(OC2CCC(OC3C(N)CC(N)C(O)C3O)OC2CN)CCC1O (stereo not drawn) [Example LI, 4-O-[4-O-(6-amino-2,3,6-trideoxy-α-O-erythro-hexopyranosyl)-6-amino-2,3,6-trideoxy-αO-erythro-hexopyranosyl]-2-deoxystreptamine disulphate]
MIC ([1]; D15, Pseudomonas aeruginosa D 15, MuellerHinton broth pH 7.2, read-out: MIC): 8 µg/mL | MIC ([2]; Micrococcus pyogenes aureus 6539 P, MuellerHinton broth pH 7.2, read-out: MIC): 0.4 µg/mL | MIC ([3]; Pseudomonas aeruginosa I.A., MuellerHinton broth pH 7.2, read-out: MIC): 32 µg/mL | MIC (Proteus mirabilis; MuellerHinton broth pH 7.2, read-out: MIC): 0.4 µg/mL | MIC (Proteus rettgeri; Proteus rettgeri, MuellerHinton broth pH 7.2, read-out: MIC): 0.2 µg/mL | MIC (Proteus morganii; Proteus morganii, MuellerHinton broth pH 7.2, read-out: MIC): 0.2 µg/mL | MIC (Salmonella sui-pestifer; Salmonella sui-pestifer, MuellerHinton broth pH 7.2, read-out: MIC): 32 µg/mL | MIC (Salmonella tiphymurium; Salmonella tiphymurium, MuellerHinton broth pH 7.2, read-out: MIC): 32 µg/mL | MIC ([4]; Pseudomonas aeruginosa s.p., MuellerHinton broth pH 7.2, read-out: MIC): 16 µg/mL | MIC ([5]; Staphylococcus pyogenes Smith A, MuellerHinton broth pH 7.2, read-out: MIC): 0.4 µg/mL | MIC (Escherichia coli R 1513): 32 µg/mL

NCC1OC(OC2C(N)CC(N)C(OC3OC(CO)C(O)C(N)C3O)C2O)C(O)C(O)C1O (stereo not shown) [Kanamycin A]
MIC ([1]; Pseudomonas aeruginosa, D15, pH 7.2): 25 µg/mL (≈ 51.6 µM) | MIC ([2]; pH 7.2): 0.8 µg/mL (≈ 1.65 µM) | MIC ([3]; Pseudomonas aeruginosa, pH 7.2): 100 µg/mL (≈ 206 µM) | MIC (Proteus mirabilis; pH 7.2): 2 µg/mL (≈ 4.13 µM) | MIC (Proteus rettgeri; pH 7.2): 0.4 µg/mL (≈ 0.826 µM) | MIC (Proteus morganii; pH 7.2): 0.8 µg/mL (≈ 1.65 µM) | MIC (Salmonella sui-pestifer; Salmonella, pH 7.2): 32 µg/mL (≈ 66 µM) | MIC (Salmonella tiphymurium; Salmonella, pH 7.2): 100 µg/mL (≈ 206 µM) | MIC ([4]; Pseudomonas aeruginosa, pH 7.2): 100 µg/mL (≈ 206 µM) | MIC ([5]; pH 7.2): 0.8 µg/mL (≈ 1.65 µM) | MIC (Escherichia coli R 1513): 100 µg/mL (≈ 206 µM)
